Experiment [1] relates to Hela, human cervical carcinoma. Kind of experiment: preliminary anti-tumor screening in vitro, MTT method. The conditions noted are these: read-out: inhibition rates (%) Hela. Format: cell-based. As for the experimental part: (§1) The test methods used in this test example are routine methods for anti-tumor activities test in pharmaceutical area, for example, referring to the following reference: (J. Immunol Method, 1983, 65, 55).
(§2) Test models: A: MTT method (Hela, human cervical carcinoma); B: SRB method (BGC-823, […]); C: SRB method (MCF-7, breast cancer); D: SRB method (A549, human lung cancer); E: SRB method (PC3M1E8, prostate cancer).
(§3) Inhibition rates of the compounds were measured under concentrations of 0.1 μM, 1 μM or 10 μM.

Experiment [2] concerns the target T1, 20S proteasome extracted from rat liver (T-L) (Rattus norvegicus, UniProt P40112+Q9JHW0).
T1 construct: 20S proteasome extracted from rat liver; from tissue; host or cells: rat liver
Kind of experiment: inhibition of 20S proteasome, T-L activity (fluorescent peptide). Format: biochemical. The conditions noted are these: rat liver 20S proteasome, 37° C., 1 h, read-out: inhibition rates (%) T-L. As for the experimental part:
(§4) 1 μg of 20S proteasome extracted from rat liver was incubated with a 100 μL solution containing various concentrations of the present compounds, 50 μM fluorescent peptides and 20 mM Tris-HCl at 37° C. for 1 h, respectively. […] 0.1% DMSO was used as a solvent control. Compared with the fluorescence of solvent control, an inhibition rate or IC50 value was calculated.

In another experiment the test system is A549, human lung cancer. Kind of experiment: preliminary anti-tumor screening in vitro, SRB method. Format: cell-based. The conditions noted are these: read-out: inhibition rates (%) A549. Here is the method:
as §1, §2, §3

Another experiment concerns BGC-823, liver cancer. Described as above. Format: cell-based. The conditions noted are these: Homo sapiens, read-out: inhibition rates (%) BGC-823. Here is the method: as §1, §2, §3
The subject of a further experiment is MCF-7, breast cancer. The experiment is described as above. The experiment is classed as cell-based. The conditions noted are these: Homo sapiens, read-out: inhibition rates (%) MCF-7; for inhibition at 0.1 µM: MCF7, 0.1 μM; for inhibition at 1 µM: MCF7, 1 μM; for inhibition at 10 µM: MCF7, 10 μM. Here is the method:
as §1, §2, §3

In experiment [3] the target is T2, 20S proteasome extracted from rat liver (PGPH) (Rattus norvegicus, UniProt P28073+Q9JHW0).
T2 construct: 20S proteasome extracted from rat liver; from tissue; host or cells: rat liver
Kind of experiment: inhibition of 20S proteasome, PGPH activity (fluorescent peptide). The experiment is classed as biochemical. As to conditions: rat liver 20S proteasome, 37° C., 1 h, read-out: inhibition rates (%) PGPH. As for the experimental part:
as §4

Experiment [4] has as its target T3, 20S proteasome extracted from rat liver (CT-L) (Rattus norvegicus, UniProt P18421+P28075).
T3 construct: 20S proteasome extracted from rat liver; from tissue; host or cells: rat liver
Kind of experiment: inhibition of 20S proteasome, CT-L activity (fluorescent peptide). As to conditions: rat liver 20S proteasome, 37° C., 1 h, read-out: inhibition rates (%) CT-L. The experiment is classed as biochemical. As for the experimental part: as §4

A word on the inhibition: it is the change of the read-out against control, counted positive when it falls.

As for `CC(C)C[C@H](NC(=O)N[C@@H](CC(C)C)C(=O)N[C@@H](CC(C)C)C(=O)Nc1cnccn1)B(O)O` [Example 11, N-L-leucine borate-N′-(pyrazin-2-ylcarbamoyl)-L-leucyl-L-leucine-urea], the inhibition at 0.1 µM in experiment [1] is 2.45%; in the experiment with A549, human lung cancer, -4.49%; with BGC-823, liver cancer, 6.32%; in the experiment on MCF-7, breast cancer, 4.81%. In addition, the inhibition at 1 µM was 6.1% in experiment [1]; 0.81% in the experiment with A549, human lung cancer; 4.58% in the experiment with BGC-823, liver cancer; 7.23% with MCF-7, breast cancer. The inhibition at 10 µM worked out at 19.2% in experiment [1]; 26.6% in the experiment on A549, human lung cancer; 13.1% with BGC-823, liver cancer; 16.1% with MCF-7, breast cancer. Moreover, the values for the inhibition at 0.2 µM in experiment [2], in experiment [3] and in experiment [4] were -8.06%, 12.8% and 5.79%, respectively. Moreover, the inhibition at 2 µM in experiment [2] was -5.63%; in experiment [3] it was 32.6%; in experiment [4], 52.8%. Also, the inhibition at 20 µM in experiment [2] amounted to 25.2%; in experiment [3], 81%; in experiment [4] it was 92.5%.

Consider `CC(C)C[C@H](NC(=O)[C@H](Cc1ccccc1)NC(=O)N[C@@H](Cc1ccccc1)C(=O)Nc1cnccn1)B(O)O` [Example 24, N-L-phenylalanyl-L-leucine borate-N′-(pyrazin-2-ylcarbamoyl)-L-phenylalanine-urea], for which the inhibition at 0.1 µM in experiment [1] was 24.7%; in the experiment with A549, human lung cancer, 29.5%; in the experiment on BGC-823, liver cancer, 36.3%; in the experiment on MCF-7, breast cancer, 19.7%. The inhibition at 1 µM in experiment [1] stood at 45.3%; in the experiment with A549, human lung cancer it was 61.5%; with BGC-823, liver cancer it was 45.6%; with MCF-7, breast cancer, 33.3%. In addition, the inhibition at 10 µM came out at 48.6% in experiment [1]; 70.2% with A549, human lung cancer; 51.1% with BGC-823, liver cancer; 45.1% with MCF-7, breast cancer. Also, the inhibition at 0.2 µM is -0.926% in experiment [2], -21.8% in experiment [3] and 84.6% in experiment [4]. For the same molecule, the inhibition at 2 µM is 43.5% in experiment [2], -24.7% in experiment [3] and 95.7% in experiment [4]. The inhibition at 20 µM is 90.2% in experiment [2], -24.2% in experiment [3] and 97.4% in experiment [4].

As to `CC(C)C[C@H](NC(=O)N[C@@H](Cc1ccccc1)C(=O)N[C@@H](CC(C)C)C(=O)Nc1cnccn1)B1OC(C)(C)C(C)(C)O1` [Example 13, N-L-leucine borate pinacol ester-N′-(pyrazin-2-ylcarbamoyl)-L-leucyl-L-phenylalanine-urea], the inhibition at 0.1 µM in experiment [1] is 7.02%; in the experiment with A549, human lung cancer, -9.11%; in the experiment with BGC-823, liver cancer, 3.66%; in the experiment with MCF-7, breast cancer, -3.69%. In addition, the inhibition at 1 µM in experiment [1] came to 20.2%; in the experiment with A549, human lung cancer, 23.5%; with BGC-823, liver cancer, 17.8%; with MCF-7, breast cancer it was 8.39%. Further, the inhibition at 10 µM in experiment [1] came to 37.7%; with A549, human lung cancer it was 50.5%; in the experiment with BGC-823, liver cancer, 40%; in the experiment on MCF-7, breast cancer it was 20%. In addition, the inhibition at 0.2 µM in experiment [2] is -3.11%; in experiment [3], 5.28%; in experiment [4], 45.4%. The inhibition at 2 µM in experiment [2] was found to be 13.8%; in experiment [3], 53.4%; in experiment [4], 91.3%. Moreover, the inhibition at 20 µM in experiment [2] worked out at 49.4%; in experiment [3], 96.8%; in experiment [4] it was 95.4%.

In the case of `CC(C)C[C@H](NC(=O)N[C@@H](Cc1ccccc1)C(=O)NCC1CCCO1)B(O)O` (stereo partly drawn) [Example 3, N-L-leucine borate-N′-(tetrahydrofuran-2-ylmethylcarbamoyl)-L-phenylalanine-urea], the inhibition at 0.1 µM in experiment [1] was 10.2%; with A549, human lung cancer it was 5.55%; with BGC-823, liver cancer it was 4.73%; in the experiment with MCF-7, breast cancer it was 3.24%. For the same molecule, the inhibition at 1 µM in experiment [1] was 14.2%; with A549, human lung cancer, 16.6%; in the experiment with BGC-823, liver cancer, -4.01%; with MCF-7, breast cancer it was 9.52%. Moreover, the inhibition at 10 µM in experiment [1] was determined as 19.2%; with A549, human lung cancer it was 14.9%; in the experiment with BGC-823, liver cancer, 0.96%; in the experiment with MCF-7, breast cancer it was 9.37%. Also, the inhibition at 0.2 µM in experiment [2] is 16.9%; in experiment [3], 7.38%; in experiment [4], -20.8%. The inhibition at 2 µM amounted to 18.5% in experiment [2], 40.8% in experiment [3] and 1.91% in experiment [4]. Further, the inhibition at 20 µM in experiment [2] was found to be 35.9%; in experiment [3], 88.4%; in experiment [4], 68.6%.

As for `CC(C)C[C@H](NC(=O)CNC(=O)Nc1cccc(OCc2ccccc2)c1)B(O)O` [Example 21, N-glycyl-L-leucine borate-N′-(3-benzyloxy-phenylamine)-urea], the inhibition at 0.1 µM amounted to 9.87% in experiment [1]; 7.42% in the experiment with A549, human lung cancer; 0.38% in the experiment with BGC-823, liver cancer; 5.41% with MCF-7, breast cancer. In addition, the inhibition at 1 µM in experiment [1] came out at 12.9%; with A549, human lung cancer, 25.2%; in the experiment on BGC-823, liver cancer, 2.21%; in the experiment on MCF-7, breast cancer, 9.64%. Further, the inhibition at 10 µM in experiment [1] is 29.9%; in the experiment on A549, human lung cancer, 41.4%; in the experiment with BGC-823, liver cancer, 23.1%; with MCF-7, breast cancer, 24.2%. For the same molecule, the inhibition at 0.2 µM is 0.355% in experiment [2], 8.58% in experiment [3] and 47.3% in experiment [4]. Besides, the inhibition at 2 µM turned out to be 29.3% in experiment [2], 62.5% in experiment [3] and 90.9% in experiment [4]. For the same molecule, the results for the inhibition at 20 µM in experiment [2], in experiment [3] and in experiment [4] were 62%, 96.9% and 95.6%, respectively.

Regarding `CC(C)C[C@H](NC(=O)[C@H](Cc1ccccc1)NC(=O)Nc1cccc(OCc2ccccc2)c1)B(O)O` [Example 16, N-L-phenylalanyl-L-leucine borate-N′-(3-benzyloxy-phenylamine)-urea], the inhibition at 0.1 µM was 9.91% in experiment [1]; 5% in the experiment with A549, human lung cancer; 6.01% with BGC-823, liver cancer; 6.62% in the experiment with MCF-7, breast cancer. Moreover, the inhibition at 1 µM came to 34.1% in experiment [1]; 36.2% in the experiment with A549, human lung cancer; 34% in the experiment on BGC-823, liver cancer; 27.2% in the experiment with MCF-7, breast cancer. Further, the inhibition at 10 µM turned out to be 39.6% in experiment [1]; 65% in the experiment with A549, human lung cancer; 48.7% in the experiment with BGC-823, liver cancer; 51.4% in the experiment on MCF-7, breast cancer. Moreover, the inhibition at 0.2 µM is -2.89% in experiment [2], -14.4% in experiment [3] and -14.6% in experiment [4]. For the same molecule, the inhibition at 2 µM is 12.3% in experiment [2], -2.93% in experiment [3] and 86.6% in experiment [4]. The inhibition at 20 µM came out at 62.2% in experiment [2], 92.4% in experiment [3] and 94.5% in experiment [4].

Source of the values: patent publication US10494384B2, “Urea peptoid boric acid compound, pharmaceutical composition thereof, preparation method therefor, and uses thereof” (Peking University, priority 2015, dated 2019).
